Results reported in US20240391948A1, “NOVEL COMPOUND THAT INHIBITS TNF-ALPHA GENERATION AND INFLAMMASOME ACTIVITY AND PREPARATION METHOD THEREFOR” (SHAPERON INC., priority 2021, published 2024).
pIC50: −log10 of the molar value.

Experiments:
Format in all cases: cell-based
[1] = tested on: U937 cells (human monocytic cell line); test: BzATP-induced IL-1β secretion inhibition in PMA-differentiated U937 cells; settings: U-937, U937 cells differentiated with PMA, read-out: IL-1β production inhibition grade (IC50)
Protocol: (§1) To evaluate anti-inflammatory efficacy, U937 cells (human monocytic cell line) were differentiated into macrophages using PMA (phorbol 12-myristate 13-acetate) and then induced an inflammatory response with Pam2CSK4 (Pam2CysSerLys4) or BzATP (2′(3′)—O-(4-Benzoylbenzoyl)adenosine 5′-triphosphate), the efficacy of taurine-bile acid derivatives in suppressing inflammatory cytokine (IL-1β, TNF-α) production was measured.
(§2) Using PMA, U937 cells were differentiated into macrophages, and the extent of TNF-α secretion inhibition was measured in an experimental group where taurine-bile acid derivatives was treated, followed by induction of inflammatory response with Pam2CSK4, and in the experimental group in which an inflammatory response was induced with BzATP, the extent to which IL-1β secretion among cytokines was suppressed was measured.
(§3) The ability of taurine-bile acid derivatives to inhibit cytokine production was expressed in terms of IC50 (μM) values. The standards for TNF α inhibition ability are A: less than 0.5, B: 0.5 to less than 1.0, C: 1.0 to less than 2.0, D: 2.0 or more, and the IL-1β inhibition ability grade standards are A: less than 0.05, B: 0.05 to less than 0.10, C: 0.10 or more and less than 0.20, D: 0.20 or more.

[2] = tested on: J774A.1 (Mouse BALB/c monocyte macrophage cell line) cells; test: LPS+ATP-induced IL-1β secretion inhibition in J774A.1 cells; settings: J774.A1, 1 μM compound, graded compared to taurodeoxycholic acid (positive control), read-out: IL-1β production inhibition grade
Protocol: (§4) To evaluate anti-inflammatory efficacy, an inflammatory response was induced in J774A.1 (Mouse BALB/c monocyte macrophage cell line) cells derived from mouse macrophages by LPS (lipopolysaccharide) and LPS+ATP (adenosine triphosphate), and the efficacy of taurine-bile acid derivatives to inhibit the production of inflammatory cytokines (IL-1β, TNF-α) was measured. After treating J774A.1 cells with 1 μM of a taurine-bile acid derivative, the degree to which the secretion of TNF-α among cytokines was suppressed was measured in the experimental group in which an inflammatory response was induced by LPS, and the extent to which IL-1β secretion among cytokines was suppressed was measured in the experimental group in which an inflammatory response was induced with LPS+ATP. The ability of taurine-bile acid derivatives to inhibit cytokine production was graded compared to taurodeoxycholic acid, a positive control. The grading criteria are A: over 100%, B: over 50% and under 100%, C: between 20% and under 50%, and D: under 20%.

[3] = tested on: J774A.1 (Mouse BALB/c monocyte macrophage cell line) cells; test: LPS-induced TNF-α secretion inhibition in J774A.1 cells; settings: J774.A1, 1 μM compound, graded compared to taurodeoxycholic acid (positive control), read-out: TNF-α production inhibition grade
Protocol: as §4

[4] = tested on: U937 cells (human monocytic cell line); test: Pam2CSK4-induced TNF-α secretion inhibition in PMA-differentiated U937 cells; settings: U-937, U937 cells differentiated with PMA, read-out: TNF-α production inhibition grade (IC50)
Protocol: as §1, §2, §3

SMILES	pIC50 [1]	inhibition at 1 µM [2] [%]	inhibition at 1 µM [3] [%]	pIC50 [4]
C[C@H](CCC(=O)NC[C@@H](C)S(=O)(=O)O)[C@H]1CC[C@H]2[C@@H]3CC[C@@H]4C[C@H](O)CC[C@]4(C)[C@H]3C[C@H](O)[C@]12C [NC10039]	7.00 to 7.30	50 to 100	20 to 50	6.00 to 6.30
C[C@H](CCC(=O)N[C@@H](CO)CS(=O)(=O)O)[C@H]1CC[C@H]2[C@@H]3CC[C@@H]4C[C@H](O)CC[C@]4(C)[C@H]3C[C@H](O)[C@]12C [NC10040]	≤ 6.70	< 20	< 20	5.70 to 6.00
C[C@H](CCC(=O)N[C@@H]1CCCC[C@@H]1S(=O)(=O)O)[C@H]1CC[C@H]2[C@@H]3CC[C@@H]4C[C@H](O)CC[C@]4(C)[C@H]3C[C@H](O)[C@]12C [NC10041]	≤ 6.70	< 20	< 20	6.00 to 6.30
C[C@H](CCC(=O)N[C@H]1CCCC[C@H]1S(=O)(=O)O)[C@H]1CC[C@H]2[C@@H]3CC[C@@H]4C[C@H](O)CC[C@]4(C)[C@H]3C[C@H](O)[C@]12C [NC10042]	≤ 6.70	< 20	< 20	6.00 to 6.30
C[C@H](CCC(=O)N[C@@H](C)CS(=O)(=O)O)[C@H]1CC[C@H]2[C@@H]3CC[C@@H]4C[C@H](O)CC[C@]4(C)[C@H]3C[C@H](O)[C@]12C [NC10043]	6.70 to 7.00	> 100	< 20	> 6.30
CC(C)C[C@@H](CS(=O)(=O)O)NC(=O)CC[C@@H](C)[C@H]1CC[C@H]2[C@@H]3CC[C@@H]4C[C@H](O)CC[C@]4(C)[C@H]3C[C@H](O)[C@]12C [NC10045]	7.00 to 7.30	50 to 100	< 20	> 6.30
CC(C)C[C@H](CS(=O)(=O)O)NC(=O)CC[C@@H](C)[C@H]1CC[C@H]2[C@@H]3CC[C@@H]4C[C@H](O)CC[C@]4(C)[C@H]3C[C@H](O)[C@]12C [NC10046]	6.70 to 7.00	50 to 100	< 20	> 6.30
C[C@H](CCC(=O)NC1(CS(=O)(=O)O)CC1)[C@H]1CC[C@H]2[C@@H]3CC[C@@H]4C[C@H](O)CC[C@]4(C)[C@H]3C[C@H](O)[C@]12C [NC10047]	6.70 to 7.00	20 to 50	< 20	6.00 to 6.30
C[C@H](CCC(=O)N1CC[C@H](S(=O)(=O)O)C1)[C@H]1CC[C@H]2[C@@H]3CC[C@@H]4C[C@H](O)CC[C@]4(C)[C@H]3C[C@H](O)[C@]12C [NC10048]	7.00 to 7.30	50 to 100	< 20	> 6.30
C[C@H](CCC(=O)N1CC[C@@H](S(=O)(=O)O)C1)[C@H]1CC[C@H]2[C@@H]3CC[C@@H]4C[C@H](O)CC[C@]4(C)[C@H]3C[C@H](O)[C@]12C [NC10049]	> 7.30	> 100	< 20	> 6.30
C[C@H](CCC(=O)N(CCN(C)C)CCS(=O)(=O)O)[C@H]1CC[C@H]2[C@@H]3CC[C@@H]4C[C@H](O)CC[C@]4(C)[C@H]3C[C@H](O)[C@]12C [NC10050]	7.00 to 7.30	> 100	< 20	> 6.30
C[C@H](CCC(=O)N(CCS(=O)(=O)O)Cc1cccnc1)[C@H]1CC[C@H]2[C@@H]3CC[C@@H]4C[C@H](O)CC[C@]4(C)[C@H]3C[C@H](O)[C@]12C [NC10051]	7.00 to 7.30	50 to 100	< 20	5.70 to 6.00
C[C@H](CCC(=O)N(CCS(=O)(=O)O)c1ccccc1)[C@H]1CC[C@H]2[C@@H]3CC[C@@H]4C[C@H](O)CC[C@]4(C)[C@H]3C[C@H](O)[C@]12C [NC10052]	7.00 to 7.30	50 to 100	50 to 100	5.70 to 6.00
C[C@H](CCC(=O)NCCC(=O)O)[C@H]1CC[C@H]2[C@@H]3CC[C@@H]4C[C@H](O)CC[C@]4(C)[C@H]3CC[C@]12C [NC10053]	7.00 to 7.30	50 to 100	50 to 100	5.70 to 6.00
C[C@H](CCC(=O)NCCCO)[C@H]1CC[C@H]2[C@@H]3CC[C@@H]4C[C@H](O)CC[C@]4(C)[C@H]3CC[C@]12C [NC10054]	7.00 to 7.30	50 to 100	< 20	5.70 to 6.00
C[C@H](CCC(=O)N(C)CCS(=O)(=O)O)[C@H]1CC[C@H]2[C@@H]3CC[C@@H]4C[C@H](O)CC[C@]4(C)[C@H]3CC[C@]12C [NC10055]	> 7.30	50 to 100	< 20	5.70 to 6.00
C[C@H](CCC(=O)N(CCS(=O)(=O)O)Cc1ccccc1)[C@H]1CC[C@H]2[C@@H]3CC[C@@H]4C[C@H](O)CC[C@]4(C)[C@H]3CC[C@]12C [NC10056]	7.00 to 7.30	50 to 100	20 to 50	≤ 5.70
CC(C)N(CCS(=O)(=O)O)C(=O)CC[C@@H](C)[C@H]1CC[C@H]2[C@@H]3CC[C@@H]4C[C@H](O)CC[C@]4(C)[C@H]3CC[C@]12C [NC10058]	> 7.30	> 100	< 20	≤ 5.70
C[C@H](CCC(=O)N(CCS(=O)(=O)O)C1CCOCC1)[C@H]1CC[C@H]2[C@@H]3CC[C@@H]4C[C@H](O)CC[C@]4(C)[C@H]3CC[C@]12C [NC10059]	> 7.30	> 100	< 20	5.70 to 6.00
C[C@H](CCC(=O)N1CCC[C@H](S(=O)(=O)O)C1)[C@H]1CC[C@H]2[C@@H]3CC[C@@H]4C[C@H](O)CC[C@]4(C)[C@H]3CC[C@]12C [NC10060]	≤ 6.70	50 to 100	< 20	≤ 5.70
C[C@H](CCC(=O)N1CCC[C@@H](S(=O)(=O)O)C1)[C@H]1CC[C@H]2[C@@H]3CC[C@@H]4C[C@H](O)CC[C@]4(C)[C@H]3CC[C@]12C [NC10061]	6.70 to 7.00	> 100	< 20	6.00 to 6.30
C[C@H](CCC(=O)N1CCC(S(=O)(=O)O)CC1)[C@H]1CC[C@H]2[C@@H]3CC[C@@H]4C[C@H](O)CC[C@]4(C)[C@H]3CC[C@]12C [NC10062]	> 7.30	> 100	< 20	6.00 to 6.30
C[C@H](CCC(=O)N1CC(S(=O)(=O)O)C1)[C@H]1CC[C@H]2[C@@H]3CC[C@@H]4C[C@H](O)CC[C@]4(C)[C@H]3CC[C@]12C [NC10063]	> 7.30	> 100	< 20	6.00 to 6.30
C[C@H](CCC(=O)NC(C)(C)CS(=O)(=O)O)[C@H]1CC[C@H]2[C@@H]3CC[C@@H]4C[C@H](O)CC[C@]4(C)[C@H]3CC[C@]12C [NC10064]	> 7.30	< 20	< 20	> 6.30
C[C@H](CCC(=O)N[C@@H](Cc1ccccc1)CS(=O)(=O)O)[C@H]1CC[C@H]2[C@@H]3CC[C@@H]4C[C@H](O)CC[C@]4(C)[C@H]3CC[C@]12C [NC10065]	6.70 to 7.00	> 100	< 20	5.70 to 6.00
C[C@H](CCC(=O)N[C@H](Cc1ccccc1)CS(=O)(=O)O)[C@H]1CC[C@H]2[C@@H]3CC[C@@H]4C[C@H](O)CC[C@]4(C)[C@H]3CC[C@]12C [NC10066]	> 7.30	> 100	< 20	5.70 to 6.00
